The supplement of paper PMC12463676, “Small-molecule dissolution of stress granules by redox modulation benefits ALS models” (Nature Chemical Biology, 2025)

Key:
lipoamide = compound: NC(=O)CCCCC1CCSS1 [lipoamide]; assay: thermal stability z-score vs DMSO; higher = more thermally stabilized by treatment; details: HeLa, lipoamide concentration 100 µM
Description: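 Cellular thermal proteome profiling in HeLa cells. Cells were treated with 100 µM lipoamide for 1 h, with or without 1 mM arsenate for a further 1 h, then heated to ten temperatures (37-66.3 °C), and soluble protein was quantified by TMT mass spectrometry relative to 0.1% DMSO controls. The thermal stability score (sum of log2 fold changes minus the abundance score) was transformed to a z-score; mean of n = 3 experiments.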

potassium arsenate = compound: O=[As]([O-])(O)O.[K+] [potassium arsenate]; assay: as above; details: HeLa; arsenate concentration 1 mM
Description: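 Cellular thermal proteome profiling in HeLa cells treated with 1 mM arsenate for 1 h (DMSO pretreatment), heated to ten temperatures (37-66.3 °C). Soluble protein was quantified by TMT mass spectrometry relative to DMSO controls; the thermal stability score was transformed to a z-score; mean of n = 3 experiments.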

[1] = arsenate co-treatment: 1 mM arsenate 1 h
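Also: each temperature applied for 3 min, abundance score taken as mean log2 fold change at the two lowest temperatures, z-score obtained by mean subtraction and division by SD.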

Chain of UniProt Q15172 (Q15172 whole entry): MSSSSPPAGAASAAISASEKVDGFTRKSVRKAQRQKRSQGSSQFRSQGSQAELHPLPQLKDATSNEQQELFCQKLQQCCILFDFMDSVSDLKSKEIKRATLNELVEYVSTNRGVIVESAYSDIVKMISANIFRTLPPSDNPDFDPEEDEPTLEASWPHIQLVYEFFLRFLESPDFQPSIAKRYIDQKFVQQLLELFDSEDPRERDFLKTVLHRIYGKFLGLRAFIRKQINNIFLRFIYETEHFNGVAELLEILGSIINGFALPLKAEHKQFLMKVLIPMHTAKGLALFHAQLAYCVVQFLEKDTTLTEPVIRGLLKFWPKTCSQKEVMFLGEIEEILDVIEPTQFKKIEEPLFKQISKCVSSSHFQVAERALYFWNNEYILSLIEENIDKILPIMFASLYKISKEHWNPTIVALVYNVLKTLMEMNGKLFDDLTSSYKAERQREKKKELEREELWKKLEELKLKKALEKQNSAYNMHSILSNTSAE
Chain of UniProt Q5M775 (Q5M775 whole entry): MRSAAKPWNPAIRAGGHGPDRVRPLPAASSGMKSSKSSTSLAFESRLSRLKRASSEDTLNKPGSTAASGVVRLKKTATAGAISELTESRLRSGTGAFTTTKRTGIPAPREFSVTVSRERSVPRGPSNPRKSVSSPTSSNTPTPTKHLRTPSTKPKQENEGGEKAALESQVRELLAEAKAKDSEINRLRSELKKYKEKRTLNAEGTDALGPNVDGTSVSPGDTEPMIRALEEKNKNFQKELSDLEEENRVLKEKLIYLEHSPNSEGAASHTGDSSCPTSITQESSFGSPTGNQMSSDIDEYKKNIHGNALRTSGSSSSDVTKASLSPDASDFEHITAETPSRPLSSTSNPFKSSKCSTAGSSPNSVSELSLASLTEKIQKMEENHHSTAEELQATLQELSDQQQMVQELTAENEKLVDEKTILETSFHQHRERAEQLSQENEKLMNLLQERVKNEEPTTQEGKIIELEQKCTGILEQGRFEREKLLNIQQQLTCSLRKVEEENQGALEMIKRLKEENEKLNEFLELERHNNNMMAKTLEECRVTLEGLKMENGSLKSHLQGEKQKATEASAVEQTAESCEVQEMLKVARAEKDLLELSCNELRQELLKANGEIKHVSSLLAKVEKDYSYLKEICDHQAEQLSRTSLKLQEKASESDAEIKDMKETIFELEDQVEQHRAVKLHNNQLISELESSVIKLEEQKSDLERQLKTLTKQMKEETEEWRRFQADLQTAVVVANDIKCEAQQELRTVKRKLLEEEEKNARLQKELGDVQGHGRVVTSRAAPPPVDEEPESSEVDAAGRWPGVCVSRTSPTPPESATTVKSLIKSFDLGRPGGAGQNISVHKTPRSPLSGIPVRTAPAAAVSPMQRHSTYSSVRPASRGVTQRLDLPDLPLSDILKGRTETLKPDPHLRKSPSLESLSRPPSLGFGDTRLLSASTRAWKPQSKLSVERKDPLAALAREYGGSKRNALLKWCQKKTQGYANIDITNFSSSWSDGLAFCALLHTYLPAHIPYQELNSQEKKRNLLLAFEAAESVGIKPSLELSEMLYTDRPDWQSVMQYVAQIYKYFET
Chain of UniProt P07992 (P07992 whole entry): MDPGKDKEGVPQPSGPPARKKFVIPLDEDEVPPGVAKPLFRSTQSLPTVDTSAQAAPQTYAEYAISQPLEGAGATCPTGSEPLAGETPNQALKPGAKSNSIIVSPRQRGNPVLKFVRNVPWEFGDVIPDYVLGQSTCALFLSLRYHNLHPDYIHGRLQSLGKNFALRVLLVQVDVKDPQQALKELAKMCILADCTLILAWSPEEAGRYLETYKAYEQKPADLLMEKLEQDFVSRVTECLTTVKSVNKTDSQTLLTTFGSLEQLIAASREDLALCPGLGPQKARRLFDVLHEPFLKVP
Chain of UniProt Q8NBJ7 (Q8NBJ7 whole entry): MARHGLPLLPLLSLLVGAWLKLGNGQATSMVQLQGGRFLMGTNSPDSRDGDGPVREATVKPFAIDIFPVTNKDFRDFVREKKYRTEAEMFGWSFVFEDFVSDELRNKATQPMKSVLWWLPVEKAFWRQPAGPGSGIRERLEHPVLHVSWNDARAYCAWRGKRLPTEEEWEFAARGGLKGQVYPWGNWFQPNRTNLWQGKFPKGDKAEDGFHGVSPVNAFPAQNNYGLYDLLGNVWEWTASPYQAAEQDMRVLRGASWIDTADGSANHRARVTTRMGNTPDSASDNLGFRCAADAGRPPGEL
Chain of UniProt Q969M7 (Q969M7 whole entry): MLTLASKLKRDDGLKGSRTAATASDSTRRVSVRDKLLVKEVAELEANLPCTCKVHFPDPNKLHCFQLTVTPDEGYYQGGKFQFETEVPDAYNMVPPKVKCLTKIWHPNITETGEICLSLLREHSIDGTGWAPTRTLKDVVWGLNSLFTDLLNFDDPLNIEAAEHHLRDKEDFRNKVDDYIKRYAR
Chain of UniProt Q9BX40 (Q9BX40 whole entry): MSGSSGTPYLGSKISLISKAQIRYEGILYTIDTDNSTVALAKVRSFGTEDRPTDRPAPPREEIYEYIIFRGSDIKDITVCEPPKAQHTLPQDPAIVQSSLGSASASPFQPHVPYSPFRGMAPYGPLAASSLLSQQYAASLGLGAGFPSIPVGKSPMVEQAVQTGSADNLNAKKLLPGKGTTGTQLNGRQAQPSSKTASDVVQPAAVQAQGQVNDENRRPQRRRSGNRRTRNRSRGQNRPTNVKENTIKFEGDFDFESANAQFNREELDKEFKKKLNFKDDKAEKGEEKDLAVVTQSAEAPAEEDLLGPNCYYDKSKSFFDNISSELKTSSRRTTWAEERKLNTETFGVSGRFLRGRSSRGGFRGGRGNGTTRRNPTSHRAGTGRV
Chain of UniProt O94903 (O94903 whole entry): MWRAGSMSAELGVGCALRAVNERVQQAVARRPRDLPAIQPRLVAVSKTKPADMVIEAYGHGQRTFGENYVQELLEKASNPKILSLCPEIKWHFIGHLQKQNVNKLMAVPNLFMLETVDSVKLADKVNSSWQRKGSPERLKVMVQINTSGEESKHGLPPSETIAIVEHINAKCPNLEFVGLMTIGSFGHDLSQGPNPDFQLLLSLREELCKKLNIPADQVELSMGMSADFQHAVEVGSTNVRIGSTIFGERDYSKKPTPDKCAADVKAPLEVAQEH
Chain of UniProt Q00577 (Q00577 whole entry): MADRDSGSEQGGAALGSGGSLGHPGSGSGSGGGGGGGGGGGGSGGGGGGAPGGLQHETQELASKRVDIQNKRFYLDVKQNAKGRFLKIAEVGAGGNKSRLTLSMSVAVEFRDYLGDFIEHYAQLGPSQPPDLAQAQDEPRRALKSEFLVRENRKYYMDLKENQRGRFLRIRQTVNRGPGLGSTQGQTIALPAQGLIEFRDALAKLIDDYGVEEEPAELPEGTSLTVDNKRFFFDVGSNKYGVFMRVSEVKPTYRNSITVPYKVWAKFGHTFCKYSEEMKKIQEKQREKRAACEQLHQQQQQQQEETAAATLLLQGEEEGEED
Chain of UniProt P46976 (P46976 whole entry): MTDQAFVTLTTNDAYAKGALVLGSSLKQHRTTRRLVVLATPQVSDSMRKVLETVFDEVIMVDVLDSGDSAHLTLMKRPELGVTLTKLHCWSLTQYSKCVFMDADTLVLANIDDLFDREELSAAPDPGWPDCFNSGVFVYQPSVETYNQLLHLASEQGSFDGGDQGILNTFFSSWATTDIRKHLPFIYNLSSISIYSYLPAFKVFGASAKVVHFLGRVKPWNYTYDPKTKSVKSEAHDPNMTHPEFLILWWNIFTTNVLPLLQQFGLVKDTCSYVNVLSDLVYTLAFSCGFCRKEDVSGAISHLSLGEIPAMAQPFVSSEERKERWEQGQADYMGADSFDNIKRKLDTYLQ
Chain of UniProt P19525 (P19525 whole entry): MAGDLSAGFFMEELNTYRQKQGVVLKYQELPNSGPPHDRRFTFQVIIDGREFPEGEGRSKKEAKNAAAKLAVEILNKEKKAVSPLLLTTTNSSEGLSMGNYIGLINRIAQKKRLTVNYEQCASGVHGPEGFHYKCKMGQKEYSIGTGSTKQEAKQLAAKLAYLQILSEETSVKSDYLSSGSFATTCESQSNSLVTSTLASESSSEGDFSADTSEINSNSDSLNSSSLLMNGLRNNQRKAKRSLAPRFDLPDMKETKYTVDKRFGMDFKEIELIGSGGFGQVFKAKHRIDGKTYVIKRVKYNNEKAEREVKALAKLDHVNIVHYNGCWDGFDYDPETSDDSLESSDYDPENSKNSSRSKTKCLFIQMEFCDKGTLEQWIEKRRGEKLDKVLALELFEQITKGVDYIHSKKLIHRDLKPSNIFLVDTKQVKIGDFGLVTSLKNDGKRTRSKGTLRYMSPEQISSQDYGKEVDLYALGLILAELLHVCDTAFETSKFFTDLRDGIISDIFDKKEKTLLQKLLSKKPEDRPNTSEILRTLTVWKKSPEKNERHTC
Chain of UniProt Q86TP1 (Q86TP1 whole entry): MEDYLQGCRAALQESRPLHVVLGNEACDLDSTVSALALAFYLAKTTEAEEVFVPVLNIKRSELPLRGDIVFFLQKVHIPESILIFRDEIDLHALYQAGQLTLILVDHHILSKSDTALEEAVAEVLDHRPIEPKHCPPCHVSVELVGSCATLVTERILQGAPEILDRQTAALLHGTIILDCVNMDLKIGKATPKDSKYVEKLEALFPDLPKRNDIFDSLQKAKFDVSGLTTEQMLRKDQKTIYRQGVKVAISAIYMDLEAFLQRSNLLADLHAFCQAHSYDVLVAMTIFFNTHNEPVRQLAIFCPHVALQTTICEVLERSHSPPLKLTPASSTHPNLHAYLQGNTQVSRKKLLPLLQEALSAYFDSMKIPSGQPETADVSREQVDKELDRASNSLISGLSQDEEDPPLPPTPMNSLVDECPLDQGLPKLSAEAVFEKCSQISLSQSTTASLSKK
Chain of UniProt Q9BRT2 (Q9BRT2 whole entry): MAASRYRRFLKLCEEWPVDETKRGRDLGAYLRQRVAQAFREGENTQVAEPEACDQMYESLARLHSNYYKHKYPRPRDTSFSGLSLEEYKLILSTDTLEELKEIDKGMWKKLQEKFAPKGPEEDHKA
Chain of UniProt Q96FQ6 (Q96FQ6 whole entry): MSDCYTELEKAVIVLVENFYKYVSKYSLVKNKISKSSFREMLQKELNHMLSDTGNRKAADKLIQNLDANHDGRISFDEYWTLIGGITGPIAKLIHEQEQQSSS

| Target | thermal stability z-score (lipoamide; [1]) | thermal stability z-score (lipoamide; arsenate co-treatment: none) | thermal stability z-score (potassium arsenate) |
| --- | --- | --- | --- |
| CRNKL1 (UniProt Q9BZJ0) | 0.288 | 0.156 | -0.00401 |
| S100A16 (UniProt Q96FQ6) | 1.33 | 1.29 | 0.517 |
| UQCC2 (UniProt Q9BRT2) | 0.0305 | -0.239 | 0.139 |
| UBE2F (UniProt Q969M7) | -0.0267 | -0.0251 | -0.224 |
| RAB33B (UniProt Q9H082) | 0.43 | 0.463 | 0.955 |
| SPG21 (UniProt Q9NZD8) | -0.161 | 0.136 | 0.634 |
| PCCB (UniProt P05166) | 0.673 | -0.198 | -0.873 |
| SUMF2 (UniProt Q8NBJ7) | -3.47 | -2.99 | 0.544 |
| LRRC8E (UniProt Q6NSJ5) | 0.43 | -0.139 | -0.237 |
| SRFBP1 (UniProt Q8NEF9) | -0.0373 | -0.0723 | 0.756 |
| DDX27 (UniProt Q96GQ7) | 0.47 | 0.52 | -0.231 |
| MID1 (UniProt O15344) | -0.525 | -0.224 | -0.963 |
| EXD2 (UniProt Q9NVH0) | -0.228 | -0.168 | -0.499 |
| MRPL1 (UniProt Q9BYD6) | -0.253 | -0.245 | 0.374 |
| UQCRQ (UniProt O14949) | 0.971 | 0.797 | 1.28 |
| UFC1 (UniProt Q9Y3C8) | 0.984 | 0.773 | 0.281 |
| FOXRED1 (UniProt Q96CU9) | -0.111 | -0.24 | 0.0548 |
| SRRM1 (UniProt Q8IYB3) | 0.79 | 0.714 | -2.14 |
| NMRAL1 (UniProt Q9HBL8) | 1.43 | 1.45 | 1.37 |
| EED (UniProt O75530) | 0.547 | 0.145 | -0.276 |
| DNAJB12 (UniProt Q9NXW2) | -0.267 | -0.124 | 0.182 |
| PRUNE (UniProt Q86TP1) | -0.709 | -0.433 | 0.291 |
| PRKDC (UniProt P78527) | 0.373 | 0.169 | -0.559 |
| KDM5C (UniProt P41229) | 0.0486 | -0.0414 | -0.2 |
| BAX (UniProt Q07812) | 0.343 | 1.42 | 1.46 |
| SRPK1 (UniProt Q96SB4) | 0.669 | -0.433 | 0.291 |
| RINT1 (UniProt Q6NUQ1) | -0.699 | -0.111 | 0.354 |
| CERCAM (UniProt Q5T4B2) | -0.0616 | -0.543 | -0.44 |

| Target | thermal stability z-score (lipoamide; [1]) | thermal stability z-score (lipoamide; arsenate co-treatment: none) | thermal stability z-score (potassium arsenate) |
| --- | --- | --- | --- |
| ARFGAP2 (UniProt Q8N6H7) | -0.346 | -0.143 | 0.0541 |
| NUMA1 (UniProt Q14980) | 0.34 | 0.207 | -1.48 |
| GEMIN8 (UniProt Q9NWZ8) | 0.0342 | -0.0734 | -0.0475 |
| RAB43 (UniProt Q86YS6) | -0.0743 | 1.38 | 1.35 |
| FAM134A (UniProt Q8NC44) | 0.119 | -0.141 | -0.162 |
| EMG1 (UniProt Q92979) | -0.357 | -0.428 | -0.383 |
| PIAS4 (UniProt Q8N2W9) | 0.144 | 0.2 | 0.136 |
| SMC1A (UniProt Q14683) | 0.323 | 0.28 | -0.186 |
| PROSC (UniProt O94903) | -0.595 | 0.453 | -1.14 |
| SPECC1 (UniProt Q5M775) | 0.0376 | 0.504 | 1.48 |
| TRMT112 (UniProt Q9UI30) | 0.215 | -0.0845 | -0.0169 |
| DFNA5 (UniProt O60443) | 0.218 | 0.152 | 0.523 |
| LSM14B (UniProt Q9BX40) | -0.354 | 0.0171 | 0.218 |
| ERCC1 (UniProt P07992) | -0.168 | 0.0263 | 0.0982 |
| PURA (UniProt Q00577) | 0.195 | -0.028 | -0.0389 |
| SLC43A3 (UniProt Q8NBI5) | 0.34 | 0.53 | 0.807 |
| EIF2AK2 (UniProt P19525) | -0.0654 | -0.252 | -1.01 |
| GYG1 (UniProt P46976) | -0.215 | 0.14 | -0.536 |
| PNPT1 (UniProt Q8TCS8) | -0.261 | -0.271 | 0.418 |
| POLR2G (UniProt P62487) | 0.343 | 0.681 | -1.1 |
| CNPY4 (UniProt Q8N129) | -1.84 | -1.57 | 0.532 |
| STX16 (UniProt O14662) | -0.63 | 0.276 | 0.553 |
| PPP2R5A (UniProt Q15172) | 0.468 | 0.527 | 0.703 |
| CCT7 (UniProt Q99832) | -0.0924 | -0.191 | -0.275 |
| UTP15 (UniProt Q8TED0) | 0.625 | 0.147 | 0.528 |
| ARFIP1 (UniProt P53367) | 0.444 | 0.144 | 0.0115 |
| CCT3 (UniProt P49368) | 0.066 | -0.106 | 0.00358 |
